Data set [1] can be described thus: Dynamic microPET/CT imaging. As to the method: The scans were performed on a trimodal small animal scanner Albira Si PET/SPECT/CT Preclinical Imaging System (Bruker, Billerica, MA, USA) in a group of Wistar rats anesthetized with isoflurane (induction 4%, maintenance 1.5-2%).
Data set [2] in a line: Blood activity clearance and pharmacokinetic parameters of radiolabelled compounds. The data set is classed as in vivo. The conditions noted are these: radiolabelled compound, rat. As to the method:
Approximately 0.2 mL/31.1 MBq of compound was administered i.v. At established time points after injection (15 min, 30 min, 1 h, 2 h, 4 h and 6 h), the animals were euthanized by cervical dislocation and dissected. Selected organs and tissues were weighed, and their radioactivity was measured using a NaI(Tl) crystal gamma counter. The results were adjusted for the radioactive decay of ^18F. The physiological distribution was calculated and expressed in terms of the percentage of administrated dose found in each of the selected organs (%ID) or per gram of tissues/organ (%ID/g) with suitable standards of the injected dose.
For [^18F]SYN2 the initial fast decrease mainly represents the equilibrium between the intravascular and extravascular components, and the second slower phase represents the metabolism.

With `CN(C)c1ccc2cc3ccc(N(C)C)cc3[n+](CC[18F])c2c1` [[^18F]SYN2], in data set [1] (after 6 min), the “SUV in the myocardium, plateau” value was found to be 3.5. In addition, the “SUV in the liver” value in data set [1] (at 45 min) is given as 1.9. In data set [1] (dynamic microPET), the “SUV in the myocardium at the beginning” value is given as 4.0; the “SUVmax in the liver” value is 2.9; the “average standardized uptake value, myocardial uptake” value was found to be 3.8. For the same compound, in data set [2] (i.v.), the AUCt came to 421 ng·h/mL; the Cl was found to be 0.2 mL/min/kg; the Cmax (as a rule, the maximum level reached in the sampled fluid or tissue) is 76.39 ng/mL; the Tmax (as a rule, the time from dosing to the highest level) is given as 0 h. For the same compound, the Vz – broadly, the apparent volume that relates the amount in the body to the concentration in plasma or blood – in data set [2] (i.v.) came out at 1.43 L/kg. Besides, the T½ in data set [2] (calculated from Eq. (0.693 · VZ · AUC)/dose) is given as 79.9 h.

The record behind these values is PMC11231114 (EJNMMI Research, 2024).
